Data: patent US20160058304A1, “SYSTEM AND METHOD FOR VESSEL ARCHITECTURAL IMAGING” (priority 2013, published 2016)

Legend:
[1] = system: recurrent glioblastomas; test: Phase II clinical trial of cediranib in recurrent glioblastoma, retrospective VAI (MRI) analysis; format: in vivo, human
Text: The study was approved by the institutional review board and informed consent was obtained from all subjects. Subject data included 13 females and 17 males diagnosed with a recurrent glioblastoma, average age 52 years, range 20-78 years. After study termination, nine subjects received one subsequent cycle of salvage chemotherapy, eight subjects received two cycles, one subject received three cycles, two subjects had undisclosed information on salvage chemotherapy and one subject received stereotactic radiosurgery.
Baseline MRI examinations were acquired prior to therapy onset (days −5 and −1), and then repeated on days 1, 28, 56 and 112 after cediranib (AstraZeneca Pharmaceuticals) anti-angiogenic therapy onset or until disease progression according to the Macdonald criteria. All imaging were performed on a 3 Tesla Magnetom Trio MRI system (Siemens Medical Solutions) as follows:
4. Dynamic susceptibility contrast (DSC) perfusion images. Axial dual-echo echo-planar images with repetition-time 1.33 s, echo-times 34 ms and 103 ms, slice-thickness 5 mm, inter-slice distance 2.5 mm, in-plane resolution 1.70:1.70 mm, matrix size 128:128, 10 slices and 120 volumes. After approximately 85 s of imaging, a 0.2 mmol kg−1 dose of Gd-DTPA was injected at 5 cc s−1.
We obtained relaxation rate curves for VAI analysis, perfusion values, blood volumes and mean transit times using established tracer kinetic models on the DSC images, corrected for contrast agent leakage (from blood-brain-barrier breakdown or resection) and fitted to a gammavariate curve for better visualization of vessel vortex effects. It has been speculated that contrast agent leakage is the reason for the clockwise vortex effect. […] Here, the pre-dose of Gd-DTPA during DCE imaging saturated potential leaky tumor tissue in the DSC images thereby minimizing the influence of leakage-induced T1-shortening effects. Relaxation rate curves not suited for analysis, conveying highly fluctuating time-courses from partial volume effects, voxel shifts and physiological pulsations were excluded from further analysis. Across all 30 subjects, an average of 78.21 percent±12.78 percent (standard deviation) of all tumor voxels met the inclusion criteria. To account for potential global systemic effects from hypertension, tumor relaxation rate curves were scaled with corresponding slice-specific mean, normal-tissue reference curves. In all figures showing vessel vortex curves, the tails of the vortex curves have been cut short to better visualize vortex direction. VAI analysis was performed using custom-made software in Matlab and traditional MRI was analyzed in nordicICE (NordicNeuroLab AS).
A subject was assumed to have an increase (decrease) in voxels with a clockwise vortex direction if the clockwise- to counter-clockwise ratio was higher (lower) than the 95 percent confidence interval of the population arithmetic mean for two consecutive imaging time points. […] Differences in VAI parameters during therapy were assessed using pairwise Wilcoxons Signed Rank test. Differences in tumor volumes, vessel caliber, permeability, perfusion and mean transit times were assessed using Mann-Whitney tests. Associations between changes in vessel vortex direction ratios and progression-free survival and overall survival were assessed using multinomial logistic regression, Kaplan-Meier survival analysis and Cox regression after adjustments for age, extent of resection, neurological performance, salvage chemotherapy and stereotactic radiosurgery after study termination as well as changes in permeability (Ktrans), T1-weighted contrast-enhanced tumor volume and T2-weighted FLAIR tumor volume prior to, and during, anti-angiogenic therapy. For all tests, P=0.05 was considered significant (with Holm-Bonferroni correction for multiple comparisons) and pixel values below a 5 percent percentile and above a 95 percent percentile were removed prior to analysis to reduce the influence of outliers. […]

[2] = system: recurrent glioblastomas; details: background statement on cediranib trial; cited from earlier work

SMILES: COc1cc2c(Oc3ccc4[nH]c(C)cc4c3F)ncnc2cc1OCCCN1CCCC1 [cediranib]
- Relative number of image voxels with a clockwise vortex direction in the tumor after therapy onset ([1]; 30 subjects collectively, pair-wise Wilcoxons Signed Ranks test P<0.05): significant increase
- Median overall survival, nonresponders ([1]; non-responders = relative decrease in image voxels with clockwise vortex direction, recurrent glioblastoma): 146 days
- Median overall survival, non-responding patients ([1]; non-responders with stable or reduced perfusion, P<0.001): 169 days
- Median overall survival, responding subjects ([1]; responders = relative increase in image voxels with clockwise vortex direction at two consecutive imaging time points, recurrent glioblastoma): 341 days
- Longer survival of responding vs non-responding patients ([1]; responders by increased perfusion vs non-responders): approximately 6 months
- Shunt index values at days 1 and 28 ([1]; responders by vascular normalization compared to non-responders, P<0.05): reduced
- Median overall survival, responding patients ([1]; responders identified by increased perfusion (vascular normalization), P<0.001): 348 days
- Contrast enhanced and FLAIR tumor volumes at day 28 ([1]; responders vs non-responders, Mann-Whitney P<0.05): significant reductions
- Whole-tumor vessel calibers compared to pre-treatment ([1]; responding subjects, P<0.01): significant reductions
- Longer survival of patients whose tumor perfusion increased during treatment [2]: approximately 6 months
